Laboratory results as given in publication PMC7900183 (2021).

What was measured:
[1] = tested on: Apt5.17-40 (DNA, aptamer) TTAGGAGGTGGGATGCGTCAGGGC; experiment: fluorescence enhancement; conditions: 150 mM Na+; less fluorescent than Apt5; 1 µM DNA, 5 µM ThT; 50 mM Tris, pH 7.4
[2] = tested on: Apt5.13-36 (DNA, aptamer) GCTATTAGGAGGTGGGATGCGTCA; experiment: fluorescence enhancement; conditions: 150 mM Na+; less fluorescent than Apt5; 1 µM DNA, 5 µM ThT; 50 mM Tris, pH 7.4
[3] = tested on: Apt4 (DNA, aptamer) GACCGGAGGGGCATCAGCTGTCCGTGAGGTTGCCGCGAGT; experiment: fluorescence enhancement; conditions: 150 mM Na+; 14x enhancement; 1 µM DNA, 5 µM ThT; 50 mM Tris, pH 7.4
[4] = tested on: Apt5 (DNA, aptamer) GCGTAGATCGAGGCTATTAGGAGGTGGGATGCGTCAGGGC; experiment: fluorescence enhancement; conditions: 150 mM Na+; 61x enhancement; 1 µM DNA, 5 µM ThT; 50 mM Tris, pH 7.4
[5] = tested on: ThT.2-2 (DNA, aptamer) GACGACGACACAGGATTAATCTTATTAGTCGTC; experiment: fluorescence enhancement; conditions: less fluorescent than Apt5.9-32; several concentrations
[6] = tested on: Apt5.1-24 (DNA, aptamer) GCGTAGATCGAGGCTATTAGGAGG; experiment: fluorescence enhancement; conditions: 150 mM Na+; less fluorescent than Apt5; 1 µM DNA, 5 µM ThT; 50 mM Tris, pH 7.4
[7] = tested on: Apt5.9-32 (DNA, aptamer) CGAGGCTATTAGGAGGTGGGATGC; experiment: fluorescence titration, 510 nm; conditions: 150 mM Na+; 50 mM Tris, pH 7.4; 1 µM ThT, aptamer 2.5-50 µM; mean of three
[8] = tested on: Primer-215 (DNA, single strand) ATGACCTATGAATTGACAGAC; experiment: fluorescence enhancement; conditions: no fluorescence; 5 µM ThT, 1 µM oligonucleotide; text says miR-215 (Primer-215)
[9] = tested on: Apt2 (DNA, aptamer) GACCGGAGGGGCATCAGCTGTCCGTGAGGTTGCCGCGAG; experiment: fluorescence enhancement; conditions: 150 mM Na+; 13x enhancement; 1 µM DNA, 5 µM ThT; 50 mM Tris, pH 7.4
[10] = tested on: Apt5.5-28 (DNA, aptamer) AGATCGAGGCTATTAGGAGGTGGG; experiment: fluorescence enhancement; conditions: 150 mM Na+; less fluorescent than Apt5; 1 µM DNA, 5 µM ThT; 50 mM Tris, pH 7.4
[11] = tested on: Apt1 (DNA, aptamer) TCGCGTGTGCAGAGGCGAGTAGGTGGGAGATCTGTCTGGG; experiment: fluorescence enhancement; conditions: 150 mM Na+; 9x enhancement; 1 µM DNA, 5 µM ThT; 50 mM Tris, pH 7.4
[12] = tested on: Apt3 (DNA, aptamer) GCACGTCCAGGACGGGGGAGCGGTGCTAGTGTCTGGCAGG; experiment: fluorescence enhancement; conditions: 150 mM Na+; 20x enhancement; 1 µM DNA, 5 µM ThT; 50 mM Tris, pH 7.4
[13] = tested on: PW17Ext (DNA, G4) GAGGAGGAGGAGGAGAGGGTAGGGCGGGTTGGG; experiment: fluorescence melting; conditions: 150 mM Na+, 10 mM K+; 50 mM Tris, pH 7.4; complex more stable than without K+

binding [1]: weak
binding [2]: weak
binding [3]: yes
binding [4]: yes
binding [5]: yes
binding [6]: weak
dissociation constant [7]: 6 ± 2 µM
binding [8]: no
binding [9]: yes
binding [10]: weak
binding [11]: yes
binding [12]: yes
binding [13]: yes
Structure (SMILES): Cc1ccc2c(c1)sc(-c1ccc(N(C)C)cc1)[n+]2C
